Read-outs that look alike come from different tables or passages of the source.
Key:
[1] = target: T1, TIE2 (Homo sapiens, UniProt Q02763); assay: KINOMEscan scanEDGE; format: binding; details: 20 uM
T1 construct: purchased Eurofins DiscoverX (KINOMEscan; SAFETYscan E/IC50 ELECT)

[2] = target: T2, PIK3CG (Homo sapiens, UniProt P48736); assay: KINOMEscan scanEDGE; format: binding; details: 20 uM
T2 construct: purchased Eurofins DiscoverX (KINOMEscan; SAFETYscan E/IC50 ELECT)

[3] = target: T3, JAK2(JH1domain-catalytic) (Homo sapiens, UniProt O60674); assay: KINOMEscan scanEDGE; format: binding; details: 20 uM
T3 construct: JAK2(JH1domain-catalytic); purchased Eurofins DiscoverX (KINOMEscan; SAFETYscan E/IC50 ELECT)

[4] = tested on: 90 kinase proteins; assay: KINOMEscan off-target binding panel (whole panel); details: 20 μM
[5] = tested on: Neonatal Rat (P1) myofibrils; assay: Myofibril ATPase, neonatal rat; format: biochemical
Procedure: Myofibrils were prepared from various animals and tissues: rabbit psoas muscle and porcine cardiac muscle were purchased from Pel-Freez Biologicals. Human bicep and soleus muscle were purchased from BioIVT, and neonatal rat muscle was obtained in house. All myofibrils were prepared using published methods ([21]).
A lactate dehydrogenase/pyruvate kinase enzyme-coupled system ([62]) was used to monitor ATP hydrolysis rates in various muscle preparations. Rabbit psoas myofibrils were used for high-throughput screening at pCa 6.25 at 0.25 mg/mL. A multidrop cassette (Thermo Fisher Scientific) dispensed 10 μL of the coupled enzyme system, calcium, and myofibrils to 10 μL ATP, NADH and PEP to initiate the reaction prior to reading on a plate reader (Envision, Perkin Elmer) for 10 minutes per plate at room temperature. Hits were reconfirmed, and secondary assays were used to evaluate selectivity, including bovine cardiac myofibrils (pCa 5.86) and enzyme coupled hits with a hexokinase screen (Sigma-Aldrich).

[6] = target: T4, BRAF (Homo sapiens, UniProt P15056); assay: KINOMEscan scanEDGE; format: binding; details: 20 uM
T4 construct: purchased Eurofins DiscoverX (KINOMEscan; SAFETYscan E/IC50 ELECT)

[7] = target: T5, PKAC-alpha (Homo sapiens, UniProt P17612); assay: KINOMEscan scanEDGE; format: binding; details: 20 uM
T5 construct: purchased Eurofins DiscoverX (KINOMEscan; SAFETYscan E/IC50 ELECT)

[8] = target: T6, PIK3CA (Homo sapiens, UniProt P42336); assay: KINOMEscan scanEDGE; format: binding; details: 20 uM
T6 construct: purchased Eurofins DiscoverX (KINOMEscan; SAFETYscan E/IC50 ELECT)

[9] = target: T7, CDK2 (Homo sapiens, UniProt P24941); assay: KINOMEscan scanEDGE; format: binding; details: 20 uM
T7 construct: purchased Eurofins DiscoverX (KINOMEscan; SAFETYscan E/IC50 ELECT)

[10] = target: T8, MAP3K4 (Homo sapiens, UniProt Q9Y6R4); assay: KINOMEscan scanEDGE; format: binding; details: 20 uM
T8 construct: purchased Eurofins DiscoverX (KINOMEscan; SAFETYscan E/IC50 ELECT)

[11] = target: T9, ULK2 (Homo sapiens, UniProt Q8IYT8); assay: KINOMEscan scanEDGE; format: binding; details: 20 uM
T9 construct: purchased Eurofins DiscoverX (KINOMEscan; SAFETYscan E/IC50 ELECT)

[12] = target: T10, smooth muscle myosin S1 isolated from chicken gizzard (Gallus gallus, UniProt P10587); assay: Actin-activated myosin S1 ATPase, smooth muscle; format: biochemical
T10 construct: purchased Cytoskeleton Inc; host or cells: chicken gizzard
Procedure: Smooth muscle chicken gizzard S1 was purchased from Cytoskeleton Inc. Other myosin S1 was prepared via published protocols ([21]). Briefly, fresh rabbit psoas and frozen porcine ventricular muscle (Pel-freez) were extracted in 0.3 M KCl, 0.15 M KH2PO4, 1 mM EGTA, 1 mM ATP, 1 mM DTT, pH 6.5, at 4°C. Full-length myosin was purified from each extract via low-ionic precipitations with final precipitation into PM12 buffer (12 mM PIPES, pH 7.0, 2 mM MgCl2). Purified myosin was resuspended in PIPES/EDTA buffer (20 mM PIPES, pH 6.8, 10 mM EDTA, 1 mM DTT) and reacted with 0.2 mg/mL α-chymotrypsin for 30 minutes at room temperature. Proteolysis was quenched with PMSF (final concentration 100 μM), and the reaction was centrifuged for 45 minutes at 230,000g. S1 fragment in the supernatant was dialyzed into PM12 with 0.02% sodium azide and clarified by centrifugation. Sucrose was added to 10% w/v and flash-frozen in liquid N2 and stored at –80°C. […]
A lactate dehydrogenase/pyruvate kinase enzyme-coupled system ([62]) was used to monitor ATP hydrolysis rates in various muscle preparations. […] A multidrop cassette (Thermo Fisher Scientific) dispensed 10 μL of the coupled enzyme system, calcium, and myofibrils to 10 μL ATP, NADH and PEP to initiate the reaction prior to reading on a plate reader (Envision, Perkin Elmer) for 10 minutes per plate at room temperature. […]

[13] = target: T11, slow bovine masseter skeletal myofibrils (Bos taurus, UniProt Q9BE39); assay: Myofibril ATPase, bovine masseter; format: biochemical; details: 100% type I, at pCa50
T11 construct: from tissue; host or cells: bovine masseter muscle

[14] = target: T12, CDK9 (Homo sapiens, UniProt P50750); assay: KINOMEscan scanEDGE; format: binding; details: 20 uM
T12 construct: purchased Eurofins DiscoverX (KINOMEscan; SAFETYscan E/IC50 ELECT)

[15] = target: T13, CAV1.2 (Homo sapiens, UniProt Q13936); assay: SAFETYscan Ion Channel; format: cell-based; set-up: dose or concentration left out as unconfirmed; details: read-out: Max Response (%) (Agonist)
T13 construct: purchased Eurofins DiscoverX (KINOMEscan; SAFETYscan E/IC50 ELECT)
Procedure: (§1) The specificity of EDG-5506 for fast skeletal myosin over other, unrelated proteins was confirmed using two off-target binding and activity screens. […] A second off-target panel (SAFETYscan E/IC50 ELECT, Eurofins DiscoverX) tested in vitro enzyme activity against 78 proteins, including GPCR, ion channel, kinases, nuclear hormone receptors, and transporters. In all assays, the IC50 of EDG-5506 was more than 10 μM (Supplemental Data File 1).

[16] = target: T14, KvLQT1/minK (Homo sapiens, UniProt P51787); assay: SAFETYscan Ion Channel; format: cell-based; set-up: dose or concentration left out as unconfirmed
T14 construct: purchased Eurofins DiscoverX (KINOMEscan; SAFETYscan E/IC50 ELECT)
Procedure: as §1

[17] = target: T15, nAChR(a4/b2) (Homo sapiens, UniProt P17787+P43681); assay: SAFETYscan Ion Channel; format: cell-based; set-up: dose or concentration left out as unconfirmed
T15 construct: purchased Eurofins DiscoverX (KINOMEscan; SAFETYscan E/IC50 ELECT)
Procedure: as §1

[18] = target: T16, NAV1.5 (Homo sapiens, UniProt Q14524); assay: SAFETYscan Ion Channel; format: cell-based; set-up: dose or concentration left out as unconfirmed; details: read-out: Max Response (%) (Antagonist)
T16 construct: purchased Eurofins DiscoverX (KINOMEscan; SAFETYscan E/IC50 ELECT)
Procedure: as §1

[19] = target: T17, NMDAR (1A/2B) (Homo sapiens, UniProt Q05586+Q13224); assay: SAFETYscan Ion Channel; format: cell-based; set-up: dose or concentration left out as unconfirmed
T17 construct: purchased Eurofins DiscoverX (KINOMEscan; SAFETYscan E/IC50 ELECT)
Procedure: as §1

[20] = target: T18, HTR3A (Homo sapiens, UniProt P46098); assay: SAFETYscan Ion Channel; format: cell-based; set-up: dose or concentration left out as unconfirmed
T18 construct: purchased Eurofins DiscoverX (KINOMEscan; SAFETYscan E/IC50 ELECT)
Procedure: as §1

[21] = target: T19, hERG (Homo sapiens, UniProt Q12809); assay: SAFETYscan Ion Channel; format: cell-based; set-up: dose or concentration left out as unconfirmed; details: read-out: Max Response (%) (Agonist)
T19 construct: purchased Eurofins DiscoverX (KINOMEscan; SAFETYscan E/IC50 ELECT)
Procedure: as §1

[22] = read-out: Max Response (%) (Agonist)
[23] = read-out: Max Response (%) (Antagonist)

T18 sequence (P46098 24-478): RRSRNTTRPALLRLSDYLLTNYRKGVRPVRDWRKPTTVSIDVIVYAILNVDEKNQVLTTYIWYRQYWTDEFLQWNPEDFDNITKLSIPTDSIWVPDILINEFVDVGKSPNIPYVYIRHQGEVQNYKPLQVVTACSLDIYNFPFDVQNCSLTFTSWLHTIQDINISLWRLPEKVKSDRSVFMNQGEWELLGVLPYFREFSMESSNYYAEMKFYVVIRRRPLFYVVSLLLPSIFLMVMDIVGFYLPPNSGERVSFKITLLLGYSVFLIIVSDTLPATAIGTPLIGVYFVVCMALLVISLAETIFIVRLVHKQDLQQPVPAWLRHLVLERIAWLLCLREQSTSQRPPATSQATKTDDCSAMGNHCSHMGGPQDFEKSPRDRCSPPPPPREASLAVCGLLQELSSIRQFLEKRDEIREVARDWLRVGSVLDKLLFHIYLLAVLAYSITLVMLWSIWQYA
T17 sequence (Q13224 27-1484, other chains not shown): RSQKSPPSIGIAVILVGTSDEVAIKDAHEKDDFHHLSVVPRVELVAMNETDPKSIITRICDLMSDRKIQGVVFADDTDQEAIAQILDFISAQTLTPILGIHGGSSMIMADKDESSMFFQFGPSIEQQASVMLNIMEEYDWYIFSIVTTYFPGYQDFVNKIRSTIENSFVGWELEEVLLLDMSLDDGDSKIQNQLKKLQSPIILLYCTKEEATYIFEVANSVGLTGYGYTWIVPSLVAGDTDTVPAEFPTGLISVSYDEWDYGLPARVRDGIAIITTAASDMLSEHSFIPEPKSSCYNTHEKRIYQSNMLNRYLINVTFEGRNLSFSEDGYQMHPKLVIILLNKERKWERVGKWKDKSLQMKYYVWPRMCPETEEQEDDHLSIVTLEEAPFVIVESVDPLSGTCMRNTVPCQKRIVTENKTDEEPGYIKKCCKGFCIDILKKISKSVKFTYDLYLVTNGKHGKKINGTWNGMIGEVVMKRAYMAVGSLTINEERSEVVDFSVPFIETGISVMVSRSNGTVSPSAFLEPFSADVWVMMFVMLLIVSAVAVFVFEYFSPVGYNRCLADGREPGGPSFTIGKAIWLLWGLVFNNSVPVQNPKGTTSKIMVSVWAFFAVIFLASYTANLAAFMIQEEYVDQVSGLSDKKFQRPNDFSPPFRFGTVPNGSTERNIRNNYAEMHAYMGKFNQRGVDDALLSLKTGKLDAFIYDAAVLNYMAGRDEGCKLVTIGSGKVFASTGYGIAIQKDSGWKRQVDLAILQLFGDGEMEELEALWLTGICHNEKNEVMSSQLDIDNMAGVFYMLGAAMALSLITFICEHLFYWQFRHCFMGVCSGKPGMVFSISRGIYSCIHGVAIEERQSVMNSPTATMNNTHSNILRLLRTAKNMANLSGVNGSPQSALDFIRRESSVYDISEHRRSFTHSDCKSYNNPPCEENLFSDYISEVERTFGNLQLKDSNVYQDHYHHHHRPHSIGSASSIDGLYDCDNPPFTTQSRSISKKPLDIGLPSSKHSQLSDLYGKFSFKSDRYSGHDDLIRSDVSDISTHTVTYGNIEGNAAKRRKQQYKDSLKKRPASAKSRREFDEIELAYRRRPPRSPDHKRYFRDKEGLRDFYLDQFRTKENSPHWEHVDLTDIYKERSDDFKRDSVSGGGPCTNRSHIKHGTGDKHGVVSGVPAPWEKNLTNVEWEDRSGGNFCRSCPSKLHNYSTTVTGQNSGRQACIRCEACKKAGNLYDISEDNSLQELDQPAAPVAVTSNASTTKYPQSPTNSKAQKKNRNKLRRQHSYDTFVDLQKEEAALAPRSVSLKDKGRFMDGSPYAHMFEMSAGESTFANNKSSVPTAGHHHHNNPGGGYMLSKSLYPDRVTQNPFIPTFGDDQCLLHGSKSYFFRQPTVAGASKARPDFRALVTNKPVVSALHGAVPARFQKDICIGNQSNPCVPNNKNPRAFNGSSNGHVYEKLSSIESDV
T15 sequence (P43681 29-627 limits assumed): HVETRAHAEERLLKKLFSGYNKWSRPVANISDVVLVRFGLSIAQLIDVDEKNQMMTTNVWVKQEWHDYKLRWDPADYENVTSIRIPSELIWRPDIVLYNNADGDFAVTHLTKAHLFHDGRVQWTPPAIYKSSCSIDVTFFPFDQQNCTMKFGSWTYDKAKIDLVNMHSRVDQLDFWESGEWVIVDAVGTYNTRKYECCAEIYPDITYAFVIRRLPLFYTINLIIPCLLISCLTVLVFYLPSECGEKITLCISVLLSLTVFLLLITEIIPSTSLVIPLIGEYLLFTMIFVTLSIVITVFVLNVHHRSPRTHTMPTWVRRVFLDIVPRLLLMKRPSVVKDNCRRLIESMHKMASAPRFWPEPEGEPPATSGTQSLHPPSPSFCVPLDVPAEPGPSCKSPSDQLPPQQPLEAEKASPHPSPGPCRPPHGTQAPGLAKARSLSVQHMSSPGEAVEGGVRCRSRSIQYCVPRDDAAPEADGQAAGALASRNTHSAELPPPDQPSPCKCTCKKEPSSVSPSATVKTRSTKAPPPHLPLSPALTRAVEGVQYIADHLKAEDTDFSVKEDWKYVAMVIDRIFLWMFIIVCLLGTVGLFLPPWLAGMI
T15 sequence (P17787 26-502): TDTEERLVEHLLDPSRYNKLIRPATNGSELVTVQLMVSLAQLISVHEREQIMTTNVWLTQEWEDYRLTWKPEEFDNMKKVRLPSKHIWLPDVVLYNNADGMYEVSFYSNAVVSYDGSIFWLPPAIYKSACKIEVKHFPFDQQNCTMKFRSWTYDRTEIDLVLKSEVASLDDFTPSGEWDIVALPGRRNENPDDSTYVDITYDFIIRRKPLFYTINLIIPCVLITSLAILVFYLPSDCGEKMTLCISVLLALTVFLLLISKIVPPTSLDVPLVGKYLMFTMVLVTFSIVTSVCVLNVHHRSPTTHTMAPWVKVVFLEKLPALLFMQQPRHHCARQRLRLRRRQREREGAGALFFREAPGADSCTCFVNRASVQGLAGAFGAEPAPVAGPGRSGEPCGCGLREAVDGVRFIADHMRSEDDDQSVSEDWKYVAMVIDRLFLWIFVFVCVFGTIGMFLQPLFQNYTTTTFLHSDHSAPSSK
T16 sequence (Q14524 whole entry): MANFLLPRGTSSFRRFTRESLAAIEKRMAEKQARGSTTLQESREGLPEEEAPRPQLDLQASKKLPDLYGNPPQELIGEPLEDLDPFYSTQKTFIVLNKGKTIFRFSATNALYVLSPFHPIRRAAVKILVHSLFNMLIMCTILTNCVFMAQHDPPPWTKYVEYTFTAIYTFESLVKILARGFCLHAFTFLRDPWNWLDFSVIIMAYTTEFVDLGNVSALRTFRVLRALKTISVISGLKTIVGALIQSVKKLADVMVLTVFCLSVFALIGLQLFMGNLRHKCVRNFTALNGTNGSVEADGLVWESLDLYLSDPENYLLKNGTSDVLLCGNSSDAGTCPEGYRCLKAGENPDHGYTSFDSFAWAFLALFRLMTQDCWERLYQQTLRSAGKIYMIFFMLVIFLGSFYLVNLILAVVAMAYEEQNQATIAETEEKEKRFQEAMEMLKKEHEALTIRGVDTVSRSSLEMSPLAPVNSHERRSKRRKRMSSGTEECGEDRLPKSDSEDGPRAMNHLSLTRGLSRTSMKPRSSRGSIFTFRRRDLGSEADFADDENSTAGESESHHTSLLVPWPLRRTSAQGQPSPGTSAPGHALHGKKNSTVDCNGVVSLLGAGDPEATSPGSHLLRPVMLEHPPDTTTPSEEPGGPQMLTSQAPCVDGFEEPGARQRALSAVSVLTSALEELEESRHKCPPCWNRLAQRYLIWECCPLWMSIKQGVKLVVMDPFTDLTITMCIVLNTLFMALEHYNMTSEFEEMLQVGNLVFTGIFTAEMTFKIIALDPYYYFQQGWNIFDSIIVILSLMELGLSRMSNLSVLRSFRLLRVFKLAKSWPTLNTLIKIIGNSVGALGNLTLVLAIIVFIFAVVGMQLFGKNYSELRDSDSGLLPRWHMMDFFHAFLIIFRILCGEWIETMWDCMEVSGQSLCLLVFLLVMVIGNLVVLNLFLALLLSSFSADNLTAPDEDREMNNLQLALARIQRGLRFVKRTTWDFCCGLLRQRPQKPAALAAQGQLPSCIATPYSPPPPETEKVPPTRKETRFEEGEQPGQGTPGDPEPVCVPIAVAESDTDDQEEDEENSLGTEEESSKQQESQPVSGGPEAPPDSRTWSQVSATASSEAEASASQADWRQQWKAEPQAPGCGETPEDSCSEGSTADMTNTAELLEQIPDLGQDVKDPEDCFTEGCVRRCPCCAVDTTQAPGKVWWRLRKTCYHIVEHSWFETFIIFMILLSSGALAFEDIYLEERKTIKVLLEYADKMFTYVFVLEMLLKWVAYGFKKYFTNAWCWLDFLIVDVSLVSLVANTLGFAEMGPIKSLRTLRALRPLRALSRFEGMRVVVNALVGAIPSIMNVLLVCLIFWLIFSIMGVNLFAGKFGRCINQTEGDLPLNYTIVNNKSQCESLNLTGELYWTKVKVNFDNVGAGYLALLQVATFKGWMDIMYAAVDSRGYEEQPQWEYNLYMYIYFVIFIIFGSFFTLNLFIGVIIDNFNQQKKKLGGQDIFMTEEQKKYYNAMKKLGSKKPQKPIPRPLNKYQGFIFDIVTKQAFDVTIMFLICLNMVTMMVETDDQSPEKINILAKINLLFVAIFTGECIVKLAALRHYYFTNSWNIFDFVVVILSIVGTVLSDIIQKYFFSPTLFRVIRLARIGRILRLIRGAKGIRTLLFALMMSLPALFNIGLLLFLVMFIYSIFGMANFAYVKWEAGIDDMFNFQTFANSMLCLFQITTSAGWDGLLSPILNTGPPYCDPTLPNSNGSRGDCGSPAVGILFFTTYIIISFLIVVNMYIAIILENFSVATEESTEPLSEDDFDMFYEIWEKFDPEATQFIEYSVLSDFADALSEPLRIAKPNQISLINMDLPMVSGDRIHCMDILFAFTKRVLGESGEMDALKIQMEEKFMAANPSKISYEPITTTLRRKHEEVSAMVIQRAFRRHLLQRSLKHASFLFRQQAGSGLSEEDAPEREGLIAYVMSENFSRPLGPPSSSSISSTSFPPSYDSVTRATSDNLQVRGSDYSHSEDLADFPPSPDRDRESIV

## O=c1ccc(-c2cnc(OCC(F)(F)F)nc2)nn1Cc1cncc(F)c1 [EDG-5506]
[1]
  binding, % of control: 95 % of control
[2]
  binding, % of control: 100 % of control
[3]
  binding, % of control: 83 % of control
[4]
  binding affinity with kinase panel: did not exhibit any binding affinity
[5]; neonatal rat (P1) myofibrils
  Maximum Inhibition (%): 96%
[5]; neonatal rat (P1), 100% neonatal/embryonic MHC
  IC50: 0.2 µM
[6]
  binding, % of control: 91 % of control
[7]
  binding, % of control: 100 % of control
[8]
  binding, % of control: 100 % of control
[9]
  binding, % of control: 100 % of control
[10]
  binding, % of control: 90 % of control
[11]
  binding, % of control: 82 % of control
[12]
  IC50: > 100 µM
[13]
  IC50: > 100 µM
[14]
  binding, % of control: 96 % of control
[15]
  Emax: 26.5%
[16]; [22]
  Emax: 0%
[16]; [23]
  Emax: 18.6%
[17]; [22]
  Emax: 0%
[17]; [23]
  Emax: 0%
[18]
  Emax: 2.32%
[19]; [22]
  Emax: 0%
[19]; [23]
  Emax: 0%
[20]; [22]
  Emax: 0.36%
[20]; [23]
  Emax: 8.58%
[21]
  Emax: 13.1%
